Reference: patent publication US10669310B2, “Peptide for cancer treatment and pharmaceutical composition containing same” (TOKUSHIMA UNIVERSITY, priority 2016, dated 2020)
pIC50: −log10 of the molar value.

How the values were obtained:
MCF-7 cells = format: cell-based, human
Protocol: (§1) Human breast cancer cell line MCF-7 and mammary epithelial cell line MCF-10A were purchased from American Type Culture Collection (ATCC, Manassas, Va., USA). Breast cancer cell line KPL-3C (J. Kurebayashi, et al., Br. J. Cancer 74, 200-207 (1996)) was kindly provided by Dr. Junichi Kurebayashi (Kawasaki Medical School). All cell lines were monolayer cultured in an appropriate medium supplemented with 10% FBS. The cells were maintained at 37° C. under humidified atmosphere containing 5% CO2.
(§2) In each experiment, the respective cells were seeded in a 48-well plate (2×10^4 cells/mL), a 6-well plate (3×10^5 cells/mL), or a 10-cm dish (2×10^6 cells/10 mL). MCF-7 cells were seeded in MEM (Thermo Fisher Scientific) supplemented with 10% FBS (Nichirei Biosciences Inc., Tokyo, Japan), 1% Antibiotic/Antimycotic solution (Thermo Fisher Scientific, Waltham, Mass., USA), 0.1 mM NEAA (Thermo Fisher Scientific), 1 mM sodium pyruvate (Thermo Fisher Scientific), and 10 μg/mL insulin (Sigma, St. Louis, Mo., USA). KPL-3C cells were seeded in RPMI (Thermo Fisher Scientific) supplemented with 10% FBS and 1% Antibiotic/Antimycotic solution. MCF-10A cells were seeded in MEBM (Lonza) supplemented with a Single Quots kit (BPE, hydrocortisone, hEGF, insulin, gentamycin/amphoterin-B) (Lonza, Walkersville, Md., USA) and 100 ng/mL cholera toxin. For 17β-estradiol (E2) (Sigma) stimulation, the media for MCF-7 and KPL-3C were changed to phenol red-free DMEM/F12 (Thermo Fisher Scientific) supplemented with 10% FBS, 1% Antibiotic/Antimycotic solution, 0.1 mM NEAA, 1 mM sodium pyruvate, and 10 μg/mL insulin on the day after seeding. Twenty-four hours later, the cells were treated with 10 nM E2 and a peptide (for example, 11R-ERAP or a stapled ERAP), or with 10 nM E2 alone.
When carrying out treatment with tamoxifen (Sigma) or fulvestrant (LKT laboratories, St. Paul, Minn., USA), cells were treated with 10 nM tamoxifen or 2 μM fulvestrant simultaneously with the above-mentioned treatment with E2 and a peptide or with E2 alone.
Cell growth assays on MCF-7, KPL-3C, and MCF-10A were carried out as described previously using a Cell Counting Kit-8 (CCK-8) (Dojindo, Kumamoto, Japan) (T. Yoshimaru, et al., Nat. Commun. 4, 2443 (2013)). The data are shown by mean±SE of three independent experiments.

[1] = test system: ERα target genes TFF1 and CCND1; assay: ERα target gene expression in removed tumors; format: in vivo, BALB/c nude mice; details: 0.02, 0.1 or 1 mg/kg i.p. every four days or every seven days
Protocol: The expression of the ERα target genes (TFF1 and CCND1) was evaluated by real-time RT-PCR as described previously (T. Yoshimaru, et al., Nat. Commun. 4, 2443 (2013)). Each sample was normalized to the β2-MG mRNA content, and the results were expressed as multiples (-fold) of the expression level in untreated cells, with that level being defined as 1.0. The data represent the mean±SD of three independent experiments. The primers used for RT-PCR were as follows: […]

BIG3-PHB2 interaction = biological target: T1, BIG3-PHB2 interaction (Homo sapiens, UniProt Q99623); assay: Co-immunoprecipitation with anti-BIG3 antibody in MCF-7 cells; format: cell-based; details: MCF-7, 1 μM, 24 hours after treatment
T1 construct: complex formation between the endogenous BIG3 and PHB2 in ERα-positive breast cancer cell line MCF-7; endogenous in cells; host or cells: MCF-7
T1 sequence (Q99623 2-299 limits assumed): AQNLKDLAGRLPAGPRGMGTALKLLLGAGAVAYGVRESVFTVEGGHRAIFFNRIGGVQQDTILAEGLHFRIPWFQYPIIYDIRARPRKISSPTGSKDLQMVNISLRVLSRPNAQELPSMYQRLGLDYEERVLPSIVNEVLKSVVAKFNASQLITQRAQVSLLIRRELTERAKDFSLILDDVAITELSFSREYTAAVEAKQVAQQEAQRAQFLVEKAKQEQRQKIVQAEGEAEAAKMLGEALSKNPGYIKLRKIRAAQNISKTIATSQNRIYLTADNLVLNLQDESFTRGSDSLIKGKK
Protocol: Immunoblot analyses were performed as described previously (T. Yoshimaru, et al., Nat. Commun. 4, 2443 (2013)). After performing SDS-PAGE, the membranes blotted with proteins were blocked with 4% BlockAce solution (Dainippon Pharmaceutical, Osaka, Japan) for three hours and then incubated with antibodies against the following proteins: BIG3 (1:1,000) (T. Yoshimaru, et al., Nat. Commun. 4, 2443 (2013)); PHB2 (1:1,000) (Abeam, Cambridge, UK); Akt, phosphorylated Akt (S473) (587F11, 1:1,000); p44/42 MAPK, phosphorylated p44/42 MAPK (T202/Y204) (1:1,000); α/β-tubulin (1:1,000) (Cell Signaling Technology, Danvers, Mass., USA); and LMNB1 (1:100) (Sigma). After incubation with an HRP-labeled secondary antibody (anti-mouse IgG-HRP, 1:5,000; anti-rat IgG-HRP; 1:5,000; or anti-rabbit IgG-HRP, 1:1,000) (Santa Cruz Biotechnology, Dallas, Tex., USA) for one hour, the blots were developed with an Enhanced Chemiluminescence (ECL) system (GE Healthcare, Buckinghamshire, UK) and scanned using an Image Reader LAS-3000 mini (Fujifilm, Tokyo, Japan). All the experiments were performed at least in triplicate.
Immunoprecipitation analysis was performed as described previously (T. Yoshimaru, et al., Nat. Commun. 4, 2443 (2013)). Cell lysates were pre-cleared with normal IgG and rec-Protein G Sepharose 4B (Thermo Fisher Scientific) at 4° C. for three hours. Then, the supernatants were incubated with 5 μg of an antibody against BIG3 or an antibody against PHB2 at 4° C. for twelve hours. Next, the antigen-antibody complexes were precipitated using rec-Protein G Sepharose 4B at 4° C. for one hour. The immunoprecipitated protein complexes were washed several times with a lysis buffer. Then, SDS-PAGE and immunoblot analyses were carried out as described above.

[2] = test system: KPL-3C orthotopic breast cancer xenografts; assay: In vivo tumor growth inhibition, KPL-3C orthotopic xenograft, intraperitoneal; design: species or system BALB/c nude mice; details: 1 mg/kg or 0.1 mg/kg i.p. every four or seven days, up to 28 days
Protocol: KPL-3C cell suspensions (1×10^7 cells/mouse) were mixed with an equal volume of Matrigel (BD) and injected (200 μL in total) into the mammary fat pads of 6-week-old female BALB/c nude mice (Charles River Laboratories, Tokyo, Japan). The mice were housed in a pathogen-free isolation facility with a twelve-hour light/dark cycle and were fed solid rodent chow and water ad libitum. The tumors developed over several days and reached sizes of approximately 100 mm^3 [calculated as ½×(width×length^2)]. The mice were randomized into the following eleven treatment groups (five heads per group):
E2 was administered via application of a solution to the neck skin, and regarding the other treatments, administration was performed via intraperitoneal injection unless other administration methods are stated. The tumor volume was measured with calipers for 28 days, and then the mice were subjected to scheduled sacrifice to remove tumors. All the experiments were performed in accordance with the guidelines of the animal facility at Tokushima University.

MCF-10A cells = assay: Cell growth (MTT) assay, MCF-10A cells; format: cell-based, human; details: normal mammary epithelial cells, ERα-negative and BIG3-negative
Protocol: as §1
as §2, with “For 17β-estradiol (E2) (Sigma) stimulation, the media for MCF-7 and KPL-3C were changed to phenol red-free DMEM/F12 (Thermo Fisher Scientific) supplemented with 10% FBS, 1% Antibiotic/Antimycotic solution, 0.1 mM NEAA, 1 mM sodium pyruvate, and 10 μg/mL insulin on the day after seeding. Twenty-four hours later, the cells were treated with 10 nM E2 and a peptide (for example, 11R-ERAP or a stapled ERAP), or with 10 nM E2 alone.” left out

CSCC[C@@H](NC(=O)[C@H]1CCC(=O)NCCCCNC(=O)CC[C@@H](NC(=O)[C@@H](CC(C)C)NC(=O)[C@@H](CCC(N)=O)NC(=O)[C@@H](CC(C)C)NC(=O)[C@@H](CCCNC(=N)N)NC(=O)[C@@H](CCC(N)=O)NC(=O)[C@@H](CCCNC(=N)N)NC(C)=O)C(=O)N[C@H](CC(C)C)C(=O)N[C@H](CC(=O)O)C(=O)N[C@H](CO)C(=O)N1)C(=O)N[C@H](CCC(N)=O)C(N)=O [RI stapled ERAP No. 12]
duration of significant cell growth inhibitory effects (MCF-7 cells; 1 μM, E2-dependent growth of MCF-7): seven | pIC50 (MCF-7 cells; 96 h): 6.30 | E2-dependent expression of TFF1 and CCND1 in tumors [1]: significantly suppressed | inhibition of endogenous BIG3-PHB2 complex formation (BIG3-PHB2 interaction): inhibited endogenous BIG3-PHB2 complex formation | E2-dependent tumor growth [2]: almost fully inhibited | effect on MCF-10A cell growth (MCF-10A cells): not inhibited
